According to a melting point compilation (Tetko et al.; mined from patent text by program, amines drawn as free bases though some values may be those of a salt):

Structure (SMILES)	melting point [°C]
COc1cc2c(cc1-c1cccnc1)-c1c(-c3cccs3)c3c(n1CC2)C(=O)N(C(C)C)CCN(C(=O)C(C)C)C3	178 to 183
CNC(=O)c1cccc(NC(=O)CCc2ccccc2)c1	142 to 143
CC(C)c1ccc(N(Cc2ccc(N(C)C)cc2)C(=O)C2CCOc3ccc(F)cc32)cc1 (configuration not stated)	95 to 98
O=C1C2=NCC3(CCCC3)CN2c2ccc(S(=O)(=O)N3CCCC3CN3CCOCC3)cc21 (configuration not stated)	163 to 164
CS(=O)(=O)c1ccc(-c2nc(C(F)(F)F)nc(NN)c2-c2ccc(S(=O)(=O)NN)cc2)cc1	203 to 206
CCOC(=O)Cc1csc2nc(C(=O)OC)cn12	152 to 154
Cc1ccccc1-c1c(NC(=O)Nc2c(C)cccc2C)c(=O)oc2c(F)cc(F)cc12	221 to 222
O=C1NC(=O)C(Nc2ccc(CCNCC(O)COc3cccc4ccccc34)cc2)S1 (configuration not stated)	61 to 62
Cc1ccc2c(-c3cnc4[nH]cc(C(=O)N[C@H](C)C(=O)N5CC(C#N)C5)c4n3)nn(C)c2n1	275 to 285
Cc1c(C(=O)Nc2ccc(N3CCC(N4CCOCC4)CC3)c(C(N)=O)c2)cnn1-c1ccc(Cl)cc1	270
CON(C)C(=O)c1cc2c(Sc3ccc(C)cc3)cncc2s1	103 to 107
Cn1c(=O)n(C)c2cc3c(N4CCN(C(=O)Nc5ccc([N+](=O)[O-])cc5)CC4)ncnc3cc21	299 to 300
CCOC(=O)NS(=O)(=O)c1ccc2c(c1)CCN(C(=O)N(C)C)CC2	140 to 141
Cc1nc(CN2CCc3sc(Nc4ncc(F)cn4)nc3-c3c[nH]nc32)no1	245
OCc1conc1-c1ccc(F)c(Br)c1	93 to 94
O=[N+]([O-])c1ccc(Nc2nc(Cl)nc3nc[nH]c23)cc1	> 270
COc1cc2c(CCN3CCN(c4cccc(Cl)c4C)CC3)nn(Cc3c[nH]cn3)c2cc1OC	143 to 144
CC(c1ccccc1)c1cccnn1 (configuration not stated)	43 to 48
CCCn1c(C)nn(-c2ccc(N3CCN(c4ccc(OC)cc4)CC3)cc2)c1=O	202
Cc1c(NC(=O)CC(C)(C)C)c(C)c2c(c1-c1ccoc1)OCC2c1ccc(C(C)C)cc1 (configuration not stated)	183 to 185
CC(=O)Oc1ccccc1C(=O)Nc1cc(Cl)c(OC(C)=O)c(Cl)c1	154 to 156
CNC(=O)c1ccc(N2CCN(Cc3cc4c(c(OC)c3)OCC(=O)N4)CC2)c(C)c1	234 to 235
CCCN1C(=O)c2cccnc2NS1(=O)=O	208 to 210
CC(C)(C)OC(=O)N[C@@H](Cc1ccccc1)C(=O)N[C@H]1CCOC1=O	132 to 133

Structure (SMILES)	melting point [°C]
CCCCCCCCC(=S)n1c(-c2cscn2)nc2ccccc21	58 to 59
COc1ccc2c(c1)CCC1C2CCC2(C)C(O)CC(C)(C)C12 (configuration not stated)	87 to 91
O=S1(=O)c2ccccc2-c2ccccc2N1CCCN1CCN(c2ccc(F)cc2)CC1	163
CCCc1c(C(=O)C(C)C)c2ccc(CC(=O)O)cc2n1Cc1cc2c(cc1Cl)OCO2	81 to 83
CN1C(=O)C(NC(=O)C23CC4CC(CC(C4)C2)C3)N=C(c2ccccc2)c2ccccc21 (racemic)	256 to 257
CC1(C)CCC(C)(C)c2cc(-c3cc4ccc(C(=O)O)cc4o3)ccc21	280
CSC[C@H](Nc1cc(F)ccc1[N+](=O)[O-])C(=O)O	147
CC1Oc2ccc(CN3CCN(CC(=O)NC4CC4)CC3)cc2NC1=O (configuration not stated)	180 to 181
CC(C)Oc1cccc(CSc2nc(N)cc(Cl)n2)c1	71
N#Cc1ccc(-c2cc(-c3ccc(C#N)cc3Cl)on2)cc1	260 to 262
COc1cc(C(=O)N2Cc3ccc(C(=O)NCc4cccc(C)c4)n3Cc3ccccc32)ccc1-c1ccccc1C	165 to 166
O=C(CCl)N1CCSC1CCc1ccccc1O (configuration not stated)	98
CCCCCCCCCCCCCCCCCCOc1cc(C(=O)O)cc([N+](=O)[O-])c1	101 to 103
CCOC(=O)c1ccc(COc2cccc3oc(C)cc23)cc1	59 to 61
CCCc1cc2c(c3ccc(OC)cc13)OCc1cc(OC)ccc1-2	88 to 90
COc1ccc(C(=O)c2c(N)sc3c2CN(C(=O)OCc2ccccc2)C3)cc1OC	195 to 196
CC(C)Oc1cncc(Br)c1	144 to 146
Cc1cc(=O)c(C(=O)Nc2ccccc2)c(-c2ccccc2)o1	222 to 226
CN(C)CCCc1cccc(OCCCNc2nc(N)nn2C)c1	64 to 65.5
COc1ccc(Cl)cc1C(=O)NCc1ccc(CCC(=O)O)cc1	152 to 153
[N-]=[N+]=Nc1ccc(C(=O)OCCOC(=O)C[C@@H](C(=O)O)n2c3ccccc3c3ccccc32)cc1	55
CC(S)C(=O)NCCS (configuration not stated)	53
CNc1ccc(NC(=O)OC2CCCC2)cc1C(Cc1ccc(C(=O)OC)cc1OC)=NOC(C)=O	124 to 126
